Reference: patent publication EP2724723A1, “Tegaserod for use in the treatment of nerve injuries” (Universitätsklinikum Hamburg-Eppendorf, priority 2012, dated 2014)

Legend:
murine motoneurons = experiment: In vitro neurite outgrowth of motoneurons; format: cell-based, C57BL/6J mice; conditions: tegaserod, cisapride, GR113808 100 nM; colominic acid 3 µM; PSA mimicking peptide 30 µM; Figure 2B
Description: (§1) Primary cultures of cerebellar neurons or Schwann cells were prepared from cerebellum or dorsal root ganglia of 7-day-old C57BL/6J mice as described in Mehanna et al. (2009), Brain, 132 (Pt 6): 1449-62 and Loers et al. (2005), J. Neurochem., 92(6): 1463-76. Motoneurons were prepared from E14 C57BL/6J mice as described in Simova et al. (2006), Ann. Neurol., 60(4): 430-437. In brief, 48-well plates were coated with 0.01% poly-L-lysine (PLL) or poly-L-ornithine (PLO) overnight at 4°C, washed twice with water and air-dried. Directly before use, plates were washed twice with PBS, and Schwann cells, cerebellar neurons (PLL) or motoneurons (PLO) were seeded at a density of 1.25 x 10^4 (Schwann cells and motoneurons) or 2.5 x 10^4 cells (cerebellar neurons) per well in 250 µl of corresponding serum-free culture medium. Soluble organic compounds were added to the culture 1 h after seeding in increasing concentrations. After maintenance for 24 h at 37°C, cells were fixed with 2.5% glutaraldehyde and stained with 1% methylene blue/toluidine blue in 1% borax. Morphological quantification of neurite or process lengths was performed as described in Mehanna et al. (2009), see above. Schwann cell processes and neurites of cerebellar neurons with a length of at least one cell body diameter were counted and total neurite or process length per cell was determined by counting 50 cells in each of two wells per experiment. At least three independent experiments were performed for each culture. Also, the activity of tegaserod with the PSA peptide mimic and the bacterial PSA analogue, colominic acid, on neurite and process extension experiments was compared.

[1] = system: cerebellar granule neurons (cGNs); experiment: In vitro neurite outgrowth of cerebellar granule neurons; format: cell-based, C57BL/6J mice; conditions: compared to control; Figure 2C, D
Description: as §1

[2] = system: murine cerebellar granule neurons (cGNs), Schwann cells, and motoneurons; experiment: In vitro neurite/process outgrowth, statements covering all cell types; format: cell-based, C57BL/6J mice
Description: as §1

[3] = system: motoneurons isolated from NCAM^-/- mice; experiment: In vitro neurite outgrowth of NCAM-deficient motoneurons; format: cell-based; conditions: tegaserod 100 nM; colominic acid 3 µM; PSA mimicking peptide 30 µM; Figure 2B
Description: as §1, with “After maintenance for 24 h at 37°C, cells were fixed with 2.5% glutaraldehyde and stained with 1% methylene blue/toluidine blue in 1% borax.” left out, “At least three independent experiments were performed for each culture. Also, the activity of tegaserod with the PSA peptide mimic and the bacterial PSA analogue, colominic acid, on neurite and process extension experiments was compared.” left out

Compound	effect on neurite extension of murine motoneurons (in words) (murine motoneurons)	effect on neurite outgrowth of cGNs (in words) [1]	concentration of maximal stimulatory effects ([2]; neurite and process extension of neurons and Schwann cells) [µM]	effect of overdosing / higher concentrations (in words) ([2]; neurons and Schwann cells)	effect on neurite extension of NCAM^-/- motoneurons (in words) [3]
NCCc1c[nH]c2ccc(O)cc12 [serotonin]	no ability to enhance motoneuron neurite extension	not observed	–	–	–
NTHTDPYIYPIDC [PSA mimicking peptide]	significant stimulatory effect	–	30	did not lead to any negative side effects	no enhancement in neurite extension
COc1cc(N)c(Cl)cc1C(=O)NC1CCN(CCCOc2ccc(F)cc2)CC1OC (stereo not drawn) [cisapride]	no ability to enhance motoneuron neurite extension	not observed	–	–	–
Cn1cc(C(=O)OCC2CCN(CCNS(C)(=O)=O)CC2)c2ccccc21 [GR 113808]	no ability to enhance motoneuron neurite extension	–	–	–	–
